Assay results taken from paper PMC8286840, “Identifying SARS-CoV-2 antiviral compounds by screening for small molecule inhibitors of Nsp3 papain-like protease” (Biochemical Journal, 2021).
Structures can show the parent of a compound that is named as a salt. Where two headings read alike, the source gives them in different places.

Legend:
[1] = target: T1, SARS-CoV-2 PLpro (nsp3 1564–1878) (Severe acute respiratory syndrome coronavirus 2, UniProt P0DTD1); assay: biochemical; parameters: FRET-quenched peptide (Pro3) cleavage by PLpro, 10 min pre-incubation, slope over 20 min, normalised to no-compound control; details: low concentration screen, read-out: % of control remaining
[2] = target: T1, SARS-CoV-2 PLpro (nsp3 1564–1878); assay: biochemical; parameters: FRET-quenched peptide (Pro3) cleavage by PLpro, 10 min pre-incubation, slope over 20 min, normalised to no-compound control; details: high concentration screen, read-out: % of control remaining

CCCN1CCC[C@@H]2Cc3nc(N)ncc3C[C@H]21 [Quinelorane dihydrochloride]
remaining activity at 1.25 µM ([1]; Well no.=1413): 95.1% | remaining activity at 3.75 µM ([2]; Well no.=1413): 98.2%

CC(CCc1ccc(O)cc1)NCCc1ccc(O)c(O)c1 (stereo not drawn) [Dobutamine.HCl]
remaining activity at 1.25 µM ([1]; Well no.=1781): 101% | remaining activity at 3.75 µM ([2]; Well no.=1781): 103%

Nc1ccc(-c2cccc3c(=O)cc(N4CCOCC4)oc23)cc1 [PI 828 - 2-(4-Morpholinyl)-8-(4-aminopheny)l-4H-1-benzopyran-4-one]
remaining activity at 1.25 µM ([1]; Well no.=2628): 98.1% | remaining activity at 3.75 µM ([2]; Well no.=2628): 102%

Nc1ccc(N2C(=O)c3ccccc3C2=O)c(Cl)c1 [N-(4-Amino-2-chlorophenyl)phthalimide]
remaining activity at 1.25 µM ([1]; Well no.=344): 95.3% | remaining activity at 3.75 µM ([2]; Well no.=344): 96.5%

CNC(=O)c1ccc(N2C(=S)N(c3cnc(C#N)c(C(F)(F)F)c3)C(=O)C23CCC3)cc1F [ARN-509]
remaining activity at 1.25 µM ([1]; Well no.=5169): 105% | remaining activity at 3.75 µM ([2]; Well no.=5169): 101%

COC(c1ccccc1)(c1ccccc1)[C@H](Oc1nc(C)cc(C)n1)C(=O)O [Ambrisentan]
remaining activity at 1.25 µM ([1]; Well no.=5270): 94.8% | remaining activity at 1.25 µM ([1]; Well no.=6365): 102% | remaining activity at 3.75 µM ([2]; Well no.=5270): 92.5% | remaining activity at 3.75 µM ([2]; Well no.=6365): 98.8%

COc1cc2ncnc(Nc3cccc(O)c3)c2cc1OC [WHI-P180, Hydrochloride]
remaining activity at 1.25 µM ([1]; Well no.=2679): 96% | remaining activity at 3.75 µM ([2]; Well no.=2679): 96.7%

O=C(O)C[C@H](O)C(=O)O [(S)-2-Hydroxysuccinic acid]
remaining activity at 1.25 µM ([1]; Well no.=6825): 105% | remaining activity at 3.75 µM ([2]; Well no.=6825): 100%

COc1cccc(OC)c1OCCNCC1CSc2ccccc2O1 (stereo not drawn) [Benoxathian hydrochloride]
remaining activity at 1.25 µM ([1]; Well no.=323): 99.7% | remaining activity at 3.75 µM ([2]; Well no.=323): 93.6%

C[C@H]1COc2c(C3(N)CC3)c(F)cc3c(=O)c(C(=O)O)cn1c23 [Pazufloxacin]
remaining activity at 1.25 µM ([1]; Well no.=2095): 97.7% | remaining activity at 3.75 µM ([2]; Well no.=2095): 98.2%

CN(C)CCSSCCNC(=O)C1CCN(C(=O)CSc2ccc(Cl)cc2)CC1 [6H05 (trifluoroacetate)]
remaining activity at 1.25 µM ([1]; Well no.=6658): 103% | remaining activity at 3.75 µM ([2]; Well no.=6658): 106%

Cn1nc(C(F)(F)F)cc1-c1cnc(N2CCc3cc(S(=O)(=O)Nc4c(F)cc(Cl)cc4F)cc(N4CCCC4=O)c32)nc1 [MGAT2-IN-1]
remaining activity at 1.25 µM ([1]; Well no.=8422): 94.8% | remaining activity at 3.75 µM ([2]; Well no.=8422): 93.1%

CN(C)C(=O)C(CCN1CCC(O)(c2ccc(Cl)cc2)CC1)(c1ccccc1)c1ccccc1 [Loperamide.HCl]
remaining activity at 1.25 µM ([1]; Well no.=1597): 104% | remaining activity at 3.75 µM ([2]; Well no.=1597): 104%

Cc1c(-c2cnccn2)ssc1=S [Oltipraz]
remaining activity at 1.25 µM ([1]; Well no.=2049): 109% | remaining activity at 3.75 µM ([2]; Well no.=2049): 112%

O=C(O)CNC(=O)c1cccc(O)c1 [3-Hydroxyhippuric acid]
remaining activity at 1.25 µM ([1]; Well no.=7219): 102% | remaining activity at 3.75 µM ([2]; Well no.=7219): 99.6%

CC(C)(C=O)Cc1cc(C(C)(C)C)c(O)c(C(C)(C)C)c1 [CGP-13501]
remaining activity at 1.25 µM ([1]; Well no.=91): 105% | remaining activity at 3.75 µM ([2]; Well no.=91): 105%

Cn1cc(-c2ccc3ncc(Cc4ccc5ncccc5c4)n3n2)cn1 [NVP-BVU972]
remaining activity at 1.25 µM ([1]; Well no.=4930): 98.1% | remaining activity at 3.75 µM ([2]; Well no.=4930): 92.3%

Nc1nccc2c1ncn2[C@@H]1O[C@H](CO)[C@@H](O)[C@H]1O [3-deazaadenosine]
remaining activity at 1.25 µM ([1]; Well no.=488): 94.5% | remaining activity at 3.75 µM ([2]; Well no.=488): 95.2%

COc1ccccc1O [Guaiacol]
remaining activity at 1.25 µM ([1]; Well no.=1626): 96.8% | remaining activity at 3.75 µM ([2]; Well no.=1626): 98.8%

Cc1cc(Nc2nc(N[C@@H](C)c3ccc(F)cc3)c(C#N)cc2F)n[nH]1 [AZ-960]
remaining activity at 1.25 µM ([1]; Well no.=2980): 93.6% | remaining activity at 3.75 µM ([2]; Well no.=2980): 92.7%

CCCN1CCC[C@@H]2Cc3[nH]ncc3C[C@H]21 [(-)-Quinpirole hydrochloride]
remaining activity at 1.25 µM ([1]; Well no.=1269): 96.5% | remaining activity at 3.75 µM ([2]; Well no.=1269): 99.7%

CC1=C(/C=C/C(C)=C/C=C/C(C)=C\C(=O)O)C(C)(C)CCC1 [13-cis-retinoic acid]
remaining activity at 1.25 µM ([1]; Well no.=1348): 95.9% | remaining activity at 3.75 µM ([2]; Well no.=1348): 101%

COc1cc2c(cc1OC)[C@H]1CC(=O)[C@H](CC(C)C)CN1CC2 [(3R,11bR)-3-isobutyl-9,10-dimethoxy-1,3,4,6,7,11b-hexahydro-2H-pyrido[2,1-a]isoquinolin-2-one]
remaining activity at 1.25 µM ([1]; Well no.=5582): 93.7% | remaining activity at 3.75 µM ([2]; Well no.=5582): 98.6%

C=C[C@@](C)(/C=C/c1ccc(O)cc1)CCC=C(C)C [Bakuchiol]
remaining activity at 1.25 µM ([1]; Well no.=4001): 101% | remaining activity at 3.75 µM ([2]; Well no.=3520): 101% | remaining activity at 3.75 µM ([2]; Well no.=4001): 97.7%

N#CC[C@H](C1CCCC1)n1cc(-c2ncnc3[nH]ccc23)cn1 [S-Ruxolitinib]
remaining activity at 1.25 µM ([1]; Well no.=4841): 96.7% | remaining activity at 3.75 µM ([2]; Well no.=4841): 97.5%

Nc1[nH]nc2nnc(-c3c(-c4ccccc4)nn4ccccc34)cc12 [ERK Inhibitor II, FR180204]
remaining activity at 1.25 µM ([1]; Well no.=2454): 103% | remaining activity at 3.75 µM ([2]; Well no.=2454): 103%

c1ccc(C(OC2CCN(CCCc3nn[nH]n3)CC2)c2ccccc2)cc1 [4-(benzhydryloxy)-1-[3-(1H-tetraazol-5-yl)propyl]piperidine]
remaining activity at 1.25 µM ([1]; Well no.=6014): 95.5% | remaining activity at 3.75 µM ([2]; Well no.=6014): 93.3%

CCN1CCN(c2cc3c(cc2F)c(=O)c(C(=O)O)cn3C2CC2)CC1 [Enrofloxacin]
remaining activity at 1.25 µM ([1]; Well no.=2028): 104% | remaining activity at 3.75 µM ([2]; Well no.=2028): 104%

CNCC(=O)O [Sarcosine]
remaining activity at 1.25 µM ([1]; Well no.=6727): 103% | remaining activity at 3.75 µM ([2]; Well no.=6727): 102%

CN(C)C(=O)[C@H](O)[C@H](Cc1ccccc1)NC(=O)c1cc2cc(Cl)ccc2[nH]1 [CP-91149]
remaining activity at 1.25 µM ([1]; Well no.=5021): 101% | remaining activity at 3.75 µM ([2]; Well no.=5021): 104%

CCCCCCCCCCCCCCCCOC[C@@H](COP(=O)([O-])OCC[N+](C)(C)C)OC(C)=O [PAF C16]
remaining activity at 1.25 µM ([1]; Well no.=4445): 103% | remaining activity at 3.75 µM ([2]; Well no.=4445): 98.2%

CC(C)(C)c1ccc(C(=O)NC(=S)Nc2ccc(N)cc2)cc1 [Tenovin-3]
remaining activity at 1.25 µM ([1]; Well no.=7072): 102% | remaining activity at 3.75 µM ([2]; Well no.=7072): 97.4%

COC(=O)c1ccccc1O [Methyl salicylate]
remaining activity at 1.25 µM ([1]; Well no.=1716): 102% | remaining activity at 3.75 µM ([2]; Well no.=1716): 101%

NC(=O)c1noc([C@H](CCCC2CCCCC2)CC(=O)NO)n1 [UK-383,367]
remaining activity at 1.25 µM ([1]; Well no.=5839): 102% | remaining activity at 3.75 µM ([2]; Well no.=5839): 103%

CCNC(=O)c1cc2c(-c3cc(OCCN4CCCC4)c(Cl)cc3Cl)nc(N)nc2s1 [NVP-BEP800]
remaining activity at 1.25 µM ([1]; Well no.=4917): 93.5% | remaining activity at 3.75 µM ([2]; Well no.=4917): 95.1%

Cc1c(C)c2c(c(C)c1O)CCC(C)(COc1ccc(CC3SC(=O)NC3=O)cc1)O2 (stereo not drawn) [Troglitazone]
remaining activity at 1.25 µM ([1]; Well no.=1630): 101% | remaining activity at 3.75 µM ([2]; Well no.=1630): 99.4%
